Assay results published in patent publication US4223034A, “Aniline derivatives” (Beecham Group Limited, priority 1977, dated 1980).
Like-named read-outs stand apart in the source and are kept apart here.

Key:
[1] = system: amphetamine induced stereotypy; assay: amphetamine stereotype test (antagonism of amphetamine induced stereotypy); format: in vivo, rats; details: for ED50: Rattus norvegicus, sc
in vivo [2] = details: sc
anti-catepressan test = format: in vivo; details: per oral
Protocol: (§1) a. […] On the anti-catepressan test [based on Costal et al, Europ. […] The LD50 of the compound of Example 3 is about 500 mg/kg per oral in the mouse.

in vivo [3] = details: mouse, po
Protocol: as §1

[4] = S.C., Table 1, read-out: ED50, antagonism of amphetamine induced stereotypy

In the case of `CN(C)CCCN1c2ccccc2Sc2ccc(Cl)cc21` [Chlorpromazine, reference compound], the “Ratio catalepsy / anti-sterotypy” value (catalepsy; ratio of ED50 values S.C., Table 1) is reported as 3, the ED50 [1, 4] is reported as 1 mg/kg and the ED50 (in vivo [2]) is reported as 3 mg/kg.

`O=C(CCCN1CCC(O)(c2ccc(Cl)cc2)CC1)c1ccc(F)cc1` [Haloperidol, reference compound] gave an ED50 [1, 4] of 0.05 mg/kg and an ED50 (in vivo [2]) of 0.3 mg/kg.

In the case of `COc1cc(N)c(Cl)cc1NC(=O)C1CCN(Cc2ccccc2)CC1` [Example 3, 5-Amino-4-chloro-2-(1^1-benzylpiperidine-4-carboxamido)-anisole], the “propensity to induce catalepsy relative to anti-stereotypy activity (in words)” value (catalepsy; in vivo) is reported as “weaker propensity to induce catalepsy”, the “Ratio catalepsy / anti-sterotypy” value (catalepsy; in vivo, sc) is reported as 30 and the ED50 (anti-catepressan test) is reported as 5 mg/kg. The LD50 (in vivo [3]) was roughly 500 mg/kg, the ED50 [1, 4] was 0.2 mg/kg and the ED50 ([1]; rats, administered sub-cutaneously, read-out: ED50, amphetamine stereotype test) was 0.2 mg/kg. The “anti-psychotic or neuroleptic activity (in words)” value ([1]; as judged by amphetamine induced stereotypy test) was “have anti-psychotic or neuroleptic activity” and the ED50 (in vivo [2]) was 6 mg/kg.
